From US11286259B2, “Co-crystals of ribociclib and co-crystals of ribociclib monosuccinate, preparation method therefor, compositions thereof, and uses thereof” (Hangzhou SoliPharma Co., Ltd., priority 2017, dated 2022)
Read-outs that look alike come from different tables or passages of the source.

Assays:
[1] = crystal form stability at high humidity; assay type: physicochemical
[2] = desiccator, 4 months, room temperature, relative humidity of 10% to 90%
[3] = stability test in water, stirred at 25° C. for 24 hours, crystal form detection by XRPD; assay type: physicochemical; conditions: for Crystal Form: 100 mg in 5 mL deionized water, stirred at 25° C. for 24 hours, XRPD
[4] = crystal stability test, samples placed at 80° C. for 24 hours, crystal form detection by XRPD; assay type: physicochemical; conditions: after being placed for 24 hours at 80° C.
[5] = water solubility test (apparent water solubility, HPLC detection); conditions: 10 mg in 10 mL deionized water, sonicated at 25° C. for 1 minute
physchem = conditions: deionized water, 25 °C, thermodynamic from solid
[6] = hygroscopicity, isothermal adsorption curve (weight gain versus relative humidity); assay type: physicochemical
[7] = high humidity, mentioned in CN105085533A, cited from earlier work
[8] = listed as co-crystal form of ribociclib monosuccinate and citric acid

For `CN(C)C(=O)c1cc2cnc(Nc3ccc(N4CCNCC4)cn3)nc2n1C1CCCC1.O=C(O)CC(O)(CC(=O)O)C(=O)O.O=C(O)CCC(=O)O`, the “crystal form at high humidity” value [1] was “remains unchanged”, the “appearance, XRPD and melting point after storage” value (“appearance … after storage” for short) [2] was “remain unchanged” and the “Crystal Form” value [3, 8] was “remains unchanged”. For the same compound, the “Crystal Form” value ([3]; listed as co-crystal of ribociclib monosuccinateand citric acid) was “Unchanged”, the “Crystal Form” value [4] was “Unchanged” and the “Crystal Form” value [4, 8] was “remains unchanged”.
In the case of `CN(C)C(=O)c1cc2cnc(Nc3ccc(N4CCNCC4)cn3)nc2n1C1CCCC1.O=C(O)c1cc(=O)[nH]c(=O)[nH]1`, the “crystal form at high humidity” value [1] is reported as “remains unchanged”, the “appearance … after storage” value [2] is reported as “remain unchanged” and the Solubility [5] is reported as 110 µg/mL.
For `CN(C)C(=O)c1cc2cnc(Nc3ccc(N4CCNCC4)cn3)nc2n1C1CCCC1` [co-crystal of ribociclib and saccharin], the “crystal form at high humidity” value [1] was “remains unchanged”, the “appearance … after storage” value [2] was “remain unchanged” and the solubility at 1 min (physchem) was ~100 µg/mL. For the same compound, the weight gain ([6]; relative humidity of 0-10%) was 0.04%, the weight gain ([6]; relative humidity of 10 to 80%) was 0.45% and the “Crystal Form” value [4] was “Unchanged”. The “Crystal Form” value ([4]; listed as co-crystal form of ribociclib and saccharin) was “remains unchanged”.
For `CN(C)C(=O)c1cc2cnc(Nc3ccc(N4CCNCC4)cn3)nc2n1C1CCCC1.O=C(O)CCC(=O)O` [listing 1 of 2 here], the “sensitivity of the crystal form to humidity” value [7] is given as “easily converts to other crystal forms at high humidity” and the “sensitivity of the crystal form to humidity” value ([7]; listed as anhydrate crystal form) is given as “easily convert to other crystal forms at high humidity”.
With `CN(C)C(=O)c1cc2cnc(Nc3ccc(N4CCNCC4)cn3)nc2n1C1CCCC1.O=C(O)CCC(=O)O` [listing 2 of 2 here] the “Crystal Form” value [3] was “cannot maintain its original crystal form” and the “crystal stability in water” value ([3]; in water, conditions not given, found by the inventors) was “crystallinity decreased significantly in water”.
